Tests used:
Format in all cases: physicochemical
[1] = Polymorph screening under 32 conditions / form stability
Text: A comprehensive polymorph screening for a TCA intermediate conjugated to an amino acid which has the structure of Formula (X) was undertaken. The TCA conjugate starting material was characterized by X-ray powder diffraction (XRPD). […] One unique XRPD patterns was observed, which was Type A. Type A is a stable Type At the ambient temperature and humidity.
(§1) For with Type A, polymorph screening experiments were set up under 32 conditions using methods of solid vapor diffusion, slurry conversion at room temperature, slurry conversion at 50° C., and temperature cycling. Polymorph screening experiments were performed using different crystallization or solid transition methods.

[2] = Slurry conversion at room temperature, solids isolated for XRPD analysis
Method: as §1
(§2) Slurry conversion experiments were conducted at room temperate and at 50° C. in different solvent systems. Solids were isolated for XRPD analysis.

[3] = Slurry conversion at 50° C., solids isolated for XRPD analysis
Method: as §1, §2

[4] = Temperature cycling polymorph screening; conditions: summary of 6 experiments
Method: as §1

[5] = Solid vapor diffusion, precipitates isolated for XRPD analysis
Method: as §1
Solid vapor diffusion experiments were conducted in different solvent conditions. The precipitates were isolated for XRPD analysis.

Stability of the crystal form ([1]; ambient temperature and humidity): stable
Crystal Type ([1]; total, all 32 screening experiments): Type A, Type A + peak
Solid Form ([2]; Acetone (exp. 818135-04-A2)): Type A
Solid Form ([2]; CAN (exp. 818135-04-A5)): Type A + peak
Solid Form ([2]; DCM (exp. 818135-04-A6)): Type A + peak
Solid Form ([2]; H2O (exp. 818135-04-A7)): Type A
Solid Form ([2]; IPAc (exp. 818135-04-A3)): Type A + peak
Solid Form ([2]; MTBE (exp. 818135-04-A4)): Type A + peak
Solid Form ([2]; MeOH (exp. 818135-04-A1)): Type A
Solid Form ([2]; THF/H2O (0.87:0.13, aW~0.8) (exp. 818135-04-A11)): Type A
Solid Form ([2]; THF/H2O (0.924:0.076, aW~0.6) (exp. 818135-04-A10)): Type A
Solid Form ([2]; THF/H2O (0.956:0.044, aW~0.4) (exp. 818135-04-A9)): Type A + peak
Solid Form ([2]; THF/H2O (0.98:0.02, aW~0.2) (exp. 818135-04-A8)): Type A
Crystal Type ([2]; summary of 11 experiments): Type A, Type A + peak
Solid Form ([3]; slurry at 50° C., 1,4-dioxane (exp. 818135-05-A6)): Type A
Solid Form ([3]; slurry at 50° C., 2-Me THF (exp. 818135-05-A3)): Type A
Solid Form ([3]; slurry at 50° C., CHCL3 (exp. 818135-05-A7)): Type A
Solid Form ([3]; slurry at 50° C., EtOAc (exp. 818135-05-A2)): Type A
Solid Form ([3]; slurry at 50° C., EtOH (exp. 818135-05-A1)): Type A
Solid Form ([3]; slurry at 50° C., MEK (exp. 818135-05-A5)): Type A
Solid Form ([3]; slurry at 50° C., Toluene (exp. 818135-05-A9)): Type A
Solid Form ([3]; slurry at 50° C., n-heptane (exp. 818135-05-A4)): Type A + peak
Crystal Type ([3]; slurry at 50° C., summary of 9 experiments): Type A, Type A + peak
Crystal Type [4]: Type A, Type A + peak
Solid Form ([5]; anti-solvent Acetone (exp. 818135-06-A5)): Type A
Solid Form ([5]; anti-solvent DCM (exp. 818135-06-A1)): Type A
Solid Form ([5]; anti-solvent DMSO (exp. 818135-06-A4)): Type A
Solid Form ([5]; anti-solvent EtOH (exp. 818135-06-A2)): Type A
Solid Form ([5]; anti-solvent H2O (exp. 818135-06-A6)): Type A
Solid Form ([5]; anti-solvent THF (exp. 818135-06-A3)): Type A
Crystal Type ([5]; summary of 6 experiments): Type A
Compound: N[C@@H](COC(=O)CCC(=O)O)C(=O)O [Type A]
